Results as given in US20160113932A1, “TREATMENT OF CANCERS USING PI3 KINASE ISOFORM MODULATORS” (INFINITY PHARMACEUTICALS, INC., priority 2013, published 2016).
≈ marks a conversion by molar mass, not a printed value. Marks after values point to notes of the source that are not given here.

Legend:
[1] = tested on: central nervous system; test: Neurofunctional study (FOB, motor activity) in Sprague-Dawley rat; assay type: in vivo; details: male rats, 2 h after a 350 mg/kg dose
[2] = tested on: respiratory system; test: Respiratory study in Sprague Dawley rat; assay type: in vivo; details: male rat, single oral administration up to 350 mg/kg
[3] = Absolute bioavailability / pharmacokinetics in Sprague-Dawley rats; assay type: in vivo; details: Rat, PO, 10 mg/kg, suspension
[4] = target: T1, human P-glycoprotein (Homo sapiens, UniProt P08183); test: Interaction with human P-glycoprotein in Caco-2 cell monolayers; assay type: in vitro ADME
T1 construct: assessed in vitro using Caco-2 cell monolayers; endogenous in cells; host or cells: Caco-2 cell monolayers
T1 sequence (P08183 whole entry): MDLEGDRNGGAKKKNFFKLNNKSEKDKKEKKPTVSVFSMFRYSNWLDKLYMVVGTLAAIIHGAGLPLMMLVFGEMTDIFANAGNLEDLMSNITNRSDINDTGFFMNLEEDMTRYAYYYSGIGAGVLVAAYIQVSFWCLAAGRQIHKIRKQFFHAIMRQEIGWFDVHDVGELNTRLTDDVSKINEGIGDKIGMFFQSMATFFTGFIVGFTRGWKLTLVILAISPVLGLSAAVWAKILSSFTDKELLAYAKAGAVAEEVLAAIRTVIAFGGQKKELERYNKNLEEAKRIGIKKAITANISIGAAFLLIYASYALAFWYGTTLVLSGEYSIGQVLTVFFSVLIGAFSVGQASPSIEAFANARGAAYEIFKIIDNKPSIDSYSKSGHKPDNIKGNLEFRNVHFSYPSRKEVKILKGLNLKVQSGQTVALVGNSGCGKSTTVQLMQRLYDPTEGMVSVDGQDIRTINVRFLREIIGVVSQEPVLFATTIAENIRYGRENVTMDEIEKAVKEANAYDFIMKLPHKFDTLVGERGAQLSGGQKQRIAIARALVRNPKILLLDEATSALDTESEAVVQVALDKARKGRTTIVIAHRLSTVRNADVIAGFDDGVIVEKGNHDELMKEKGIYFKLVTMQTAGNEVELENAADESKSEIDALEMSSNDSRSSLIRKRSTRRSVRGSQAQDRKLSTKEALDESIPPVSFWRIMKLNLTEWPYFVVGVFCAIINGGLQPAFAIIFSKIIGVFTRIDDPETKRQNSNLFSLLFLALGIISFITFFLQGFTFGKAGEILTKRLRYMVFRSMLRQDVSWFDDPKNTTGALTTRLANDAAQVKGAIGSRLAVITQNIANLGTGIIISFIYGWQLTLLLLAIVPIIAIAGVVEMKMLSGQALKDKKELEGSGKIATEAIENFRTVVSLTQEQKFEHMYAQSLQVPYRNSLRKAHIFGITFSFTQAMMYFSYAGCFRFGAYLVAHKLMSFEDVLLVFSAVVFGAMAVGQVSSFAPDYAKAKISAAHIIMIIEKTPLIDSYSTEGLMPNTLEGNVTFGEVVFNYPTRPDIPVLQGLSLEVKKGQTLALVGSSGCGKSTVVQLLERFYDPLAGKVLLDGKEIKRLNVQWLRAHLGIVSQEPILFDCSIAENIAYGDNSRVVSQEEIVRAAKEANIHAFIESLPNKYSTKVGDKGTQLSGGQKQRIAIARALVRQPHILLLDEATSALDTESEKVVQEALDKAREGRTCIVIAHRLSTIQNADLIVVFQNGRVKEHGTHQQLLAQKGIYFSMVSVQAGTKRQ

[5] = Clinical pharmacokinetics after 25 mg or 75 mg BID administration; assay type: in vivo, human
[6] = target: PI3K δ (Homo sapiens, UniProt O00329); test: PI3K-δ suppression level (IC90) quoted with clinical plasma concentrations
PI3K δ, sequence (O00329 whole entry, species assumed): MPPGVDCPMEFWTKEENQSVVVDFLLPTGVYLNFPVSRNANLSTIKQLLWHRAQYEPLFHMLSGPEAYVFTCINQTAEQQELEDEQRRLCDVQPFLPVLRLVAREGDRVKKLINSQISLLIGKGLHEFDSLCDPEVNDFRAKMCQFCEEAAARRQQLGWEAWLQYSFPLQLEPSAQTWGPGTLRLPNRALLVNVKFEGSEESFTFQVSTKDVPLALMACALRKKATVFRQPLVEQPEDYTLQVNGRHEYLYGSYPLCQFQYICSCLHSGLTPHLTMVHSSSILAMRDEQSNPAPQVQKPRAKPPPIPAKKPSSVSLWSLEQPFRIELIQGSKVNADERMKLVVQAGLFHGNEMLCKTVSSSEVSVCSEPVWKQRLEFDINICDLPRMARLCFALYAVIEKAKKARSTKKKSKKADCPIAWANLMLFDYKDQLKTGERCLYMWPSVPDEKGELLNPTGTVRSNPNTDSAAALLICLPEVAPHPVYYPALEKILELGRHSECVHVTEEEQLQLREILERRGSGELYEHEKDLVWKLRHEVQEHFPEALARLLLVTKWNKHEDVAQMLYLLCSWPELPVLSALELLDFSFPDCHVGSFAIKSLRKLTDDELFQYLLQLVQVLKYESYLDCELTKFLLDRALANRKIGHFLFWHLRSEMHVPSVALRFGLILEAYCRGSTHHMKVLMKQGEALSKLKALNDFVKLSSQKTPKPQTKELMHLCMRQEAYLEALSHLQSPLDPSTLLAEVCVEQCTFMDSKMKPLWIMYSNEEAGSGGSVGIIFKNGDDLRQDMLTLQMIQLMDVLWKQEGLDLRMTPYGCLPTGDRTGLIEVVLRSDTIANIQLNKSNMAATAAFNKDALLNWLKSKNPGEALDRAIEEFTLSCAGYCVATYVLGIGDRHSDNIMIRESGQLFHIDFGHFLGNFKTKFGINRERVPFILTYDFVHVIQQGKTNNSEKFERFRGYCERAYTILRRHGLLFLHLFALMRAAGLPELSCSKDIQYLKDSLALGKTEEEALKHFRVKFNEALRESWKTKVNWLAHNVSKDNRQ
PI3K δ, sequence (P27986 whole entry partner, species assumed): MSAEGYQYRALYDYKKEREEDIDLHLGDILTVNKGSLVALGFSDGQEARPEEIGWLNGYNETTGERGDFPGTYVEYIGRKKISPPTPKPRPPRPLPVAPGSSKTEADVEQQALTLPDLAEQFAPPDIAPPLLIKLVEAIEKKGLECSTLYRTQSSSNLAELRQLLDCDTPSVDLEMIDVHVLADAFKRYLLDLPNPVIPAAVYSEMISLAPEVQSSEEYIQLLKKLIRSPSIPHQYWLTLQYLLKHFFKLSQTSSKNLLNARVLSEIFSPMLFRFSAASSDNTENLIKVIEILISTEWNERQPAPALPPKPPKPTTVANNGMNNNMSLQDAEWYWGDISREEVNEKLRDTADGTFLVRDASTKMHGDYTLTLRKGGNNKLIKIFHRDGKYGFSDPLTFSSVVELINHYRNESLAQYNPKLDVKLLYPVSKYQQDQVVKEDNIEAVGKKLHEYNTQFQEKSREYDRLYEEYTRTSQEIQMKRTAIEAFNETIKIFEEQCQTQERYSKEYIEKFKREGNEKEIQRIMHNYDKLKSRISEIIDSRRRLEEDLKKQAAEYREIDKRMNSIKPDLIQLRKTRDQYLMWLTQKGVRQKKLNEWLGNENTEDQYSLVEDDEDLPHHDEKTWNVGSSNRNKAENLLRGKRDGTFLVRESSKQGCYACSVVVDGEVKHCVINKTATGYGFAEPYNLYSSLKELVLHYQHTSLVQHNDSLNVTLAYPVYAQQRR

[7] = tested on: advanced hematologic malignancies; test: Phase 1 dose-escalation study in advanced hematologic malignancies: clinical response; assay type: in vivo, human
[8] = tested on: Pfeiffer; test: DLBCL cellular growth inhibition assay; assay type: cell-based; details: Homo sapiens
[9] = tested on: pAKT and Ki-67 expression in primary CLL cells; test: CLL cell proliferation with CD40L/IL-2/IL-10, four color FACS; assay type: cell-based; details: Homo sapiens, primary CLL cells stimulated with CD40L/IL-2/IL-10, n=2, read-out: EC50, inhibition of pAKT and Ki-67 expression
Procedure: Generally, CLL cells were seeded and incubated with proliferation cocktail (containing sCD40L, rH-IL 10 and rH-IL 2) in media. Then, four color FACS analysis was performed using antibodies to pAKT, Ki-67, CD19 and CD5.

[10] = CLL/SLL, 16 treated, 11 evaluable
[11] = T-Cell Lymphoma, 7 treated, 6 evaluable

C[C@H](Nc1ncnc2[nH]cnc12)c1cc2cccc(Cl)c2c(=O)n1-c1ccccc1 [Compound 292]
locomotor activity [1]: Significant decreases
effects on respiratory parameters (respiratory rate, tidal volume, minute volume) [2]: no Compound 292-related effects
Foral [3]: 57%
P-gp substrate status [4]: is a P-gp substrate
inhibition of active transport of other P-gp substrates [4]: has the potential to inhibit
mean predose steady state plasma concentration ([5]; 25 mg BID): about 390 ng/ml
time of maximal plasma concentrations following dosing ([5]; 25 mg or 75 mg BID): around 1 hour
AUC versus dose ([5]; doses through 75 mg BID): increases proportionally with doses
half-life ([5]; human, plasma, oral, both 25 mg and 75 mg BID, read-out: elimination half-life): 4 to 5 h
IC90 [6]: 0.361 µg/mL (≈ 0.866 µM)
responders responding by first assessment (within about 2 months) ([7]; B cell lymphoma, 16 out of 18 responders): 89%
Best Observed Response: CR [7, 10]: 0 n
Best Observed Response: PR [7, 10]: 6 n
Time to Response, Median (range) [7, 10]: 2.9 (1.8, 5.6) Months
Best Observed Response: SD ([7]; CLL/SLL, 16 treated, 11 evaluable, four nodal responses): 4 ^c n
Best Observed Response: CR ([7]; CTCL, T/E 10/4): 0 n
Best Observed Response: SD ([7]; CTCL, T/E 10/4): 2 n
Median Time to Response (range) ([7]; CTCL, T/E 10/4): 1.7 (—) ^ Months
Best Observed Response: PR ([7]; HL, 3 treated, 2 evaluable): 0 n
Best Observed Response: SD ([7]; HL, 3 treated, 2 evaluable): 0 n
Time to Response, Median (range) ([7]; HL, 3 treated, 2 evaluable): 1.7 (1.7, 1.7) Months
Best Observed Response: CR ([7]; HL, T/E 3/3 (Table 16)): 1 (33) n(%)
Best Observed Response: Overall ([7]; HL, T/E 3/3 (Table 16)): 1 (33) n(%)
Best Observed Response: PD ([7]; HL, T/E 3/3 (Table 16)): 1 (33) n(%)
Best Observed Response: PR ([7]; HL, T/E 3/3 (Table 16)): 0 n(%)
Best Observed Response: SD ([7]; HL, T/E 3/3 (Table 16)): 1 (33) n(%)
Median Time to Rsp (Range) ([7]; HL, T/E 3/3 (Table 16)): 1.7 Months
Best Observed Response: CR ([7]; MCL, 4 treated, 3 evaluable): 0 n
Best Observed Response: PR ([7]; MCL, 4 treated, 3 evaluable): 2 n
Best Observed Response: SD ([7]; MCL, 4 treated, 3 evaluable): 0 n
Time to Response, Median (range) ([7]; MCL, 4 treated, 3 evaluable): 1.9 (1.9, 1.9) Months
responses ([7]; MCL, 11 evaluable patients, 8, 15 and 25 mg BID): 1/1
Best Observed Response: CR ([7]; MCL, T/E 9/6 (Table 16)): 1 (17) n(%)
Best Observed Response: Overall ([7]; MCL, T/E 9/6 (Table 16)): 4 (67) n(%)
Best Observed Response: PD ([7]; MCL, T/E 9/6 (Table 16)): 1 (17) n(%)
Best Observed Response: PR ([7]; MCL, T/E 9/6 (Table 16)): 3 (50) n(%)
Best Observed Response: SD ([7]; MCL, T/E 9/6 (Table 16)): 1 (17) n(%)
Median Time to Rsp (Range) ([7]; MCL, T/E 9/6 (Table 16)): 1.8 (1.6-1.9) Months
Best Observed Response: CR ([7]; MM, 3 treated, 3 evaluable): 0 n
Best Observed Response: PD ([7]; MM, 3 treated, 3 evaluable): 2 n
Best Observed Response: PR ([7]; MM, 3 treated, 3 evaluable): 0 n
Best Observed Response: PD ([7]; PTCL, T/E 7/5): 3 n
Best Observed Response: SD ([7]; PTCL, T/E 7/5): 0 n
Median Time to Response (range) ([7]; PTCL, T/E 7/5): 2.3 (1.9-2.7) Months
patients with at least 50% tumor response ([7]; T cell lymphoma (2 PTCL and 1 CTCL), CT scans): 33 % of the patients
Best Observed Response: PD [7, 11]: 3 n
Time to Response, Median (range) [7, 11]: 2.4 (1.8, 3.1) Months
Best Observed Response: PD ([7]; TCL Total, T/E 17/9 (Table 15)): 4 n
Best Observed Response: PR ([7]; TCL Total, T/E 17/9 (Table 15)): 2 n
Best Observed Response: SD ([7]; TCL Total, T/E 17/9 (Table 15)): 2 n
Median Time to Response (range) ([7]; TCL Total, T/E 17/9 (Table 15)): 1.9 (1.7-2.7) Months
Best Observed Response: CR ([7]; aNHL, 5 treated, 3 evaluable): 0 n
Best Observed Response: PD ([7]; aNHL, 5 treated, 3 evaluable): 2 n
Best Observed Response: PR ([7]; aNHL, 5 treated, 3 evaluable): 0 n
Best Observed Response: CR ([7]; aNHL, T/E 13/10 (Table 16)): 0 n(%)
Best Observed Response: Overall ([7]; aNHL, T/E 13/10 (Table 16)): 0 n(%)
Best Observed Response: PD ([7]; aNHL, T/E 13/10 (Table 16)): 6 (60) n(%)
Best Observed Response: PR ([7]; aNHL, T/E 13/10 (Table 16)): 0 n(%)
Best Observed Response: SD ([7]; aNHL, T/E 13/10 (Table 16)): 4 (40) n(%)
Best Observed Response: PR ([7]; iNHL, 17 treated, 13 evaluable): 7 n
Time to Response, Median (range) ([7]; iNHL, 17 treated, 13 evaluable): 1.8 (1.7, 2.8) Months
Best Observed Response: CR ([7]; iNHL, T/E 26/19 (Table 16)): 3 (16) n(%)
Best Observed Response: MR (Minor Response for Waldenstrom's) ([7]; iNHL, T/E 26/19 (Table 16)): 1 (5) n(%)
Best Observed Response: Overall ([7]; iNHL, T/E 26/19 (Table 16)): 13 (68) n(%)
Best Observed Response: PD ([7]; iNHL, T/E 26/19 (Table 16)): 2 (11) n(%)
Best Observed Response: PR ([7]; iNHL, T/E 26/19 (Table 16)): 10 (53) n(%)
Best Observed Response: SD ([7]; iNHL, T/E 26/19 (Table 16)): 3 (16) n(%)
Median Time to Rsp (Range) ([7]; iNHL, T/E 26/19 (Table 16)): 1.8 (1.7-4.1) Months
IC50 [8]: > 50 µM
EC50 [9]: < 0.01 µM
